Measurements: US20260216294A1, “BETA 2-ADRENERGIC RECEPTOR AGONISTS FOR TREATMENT OR PREVENTION OF MUSCLE WASTING” (ATROGI AB, priority 2023, published 2026)

What was measured:
β2-adrenergic receptor [1] = biological target: T1, β2-adrenergic receptor (Rattus norvegicus, UniProt P10608); assay: Glucose uptake in the presence of the selective β2-adrenergic receptor antagonist ICI-118551 (Biological Example 1); type: cell-based; details: L6-myotubes; test compound 1×10^−5 M; different concentrations of ICI-118551; FIGS. 1a-1c
T1 construct: endogenous in cells; host or cells: L6 myoblasts differentiated into myotubes
Experimental: L6-myoblasts were grown in Dulbecco's Modified Eagle's Medium (DMEM) containing 1 g/L glucose supplemented with 10% fetal bovine serum (FBS), 2 mM L-glutamine, 50 U/mL penicillin, 50 μg/mL streptomycin and 10 mM HEPES. Cells were plated at 1×10^5 cells per mL in 24-well plates. After reaching 90% confluence the cells were grown in medium containing 2% FBS for 7 days where upon cells differentiated into myotubes. The differentiated L6-myotubes were serum-starved overnight in medium containing 0.5% fatty-acid free BSA and stimulated with the test compound at a final concentration of 1×10^−5 M in the presence of different concentrations of the selective β2-adrenergic receptor antagonist ICI-118551. After 1 h 40 min the cells were washed with warm, glucose free medium twice and another portion of agonist was added to the glucose free medium. After another 20 min of incubation the cells were exposed to 50 nM ^3H-2-deoxyglucose for 10 min before washed in ice cold glucose free medium three times and lysed in 400 μL/well 0.2 M NaOH for 1 h at 60° C. The cell lysate was mixed with 4 ml scintillation buffer (Emulsifier Safe, Perkin Elmer) and the radioactivity was detected in a β-counter (Tri-Carb 4810TR, Perkin Elmer).

L6-myotubes [2] = assay: Glucose uptake in differentiated L6-myotubes (Biological Example 2); type: cell-based; details: for glucose uptake: L6-myotubes, FIGS. 2a-2d; for Emax at 10 µM: read-out: Biological example 2 (GU)
Method in brief: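 Differentiated L6 myotubes were serum-starved overnight in 0.5% fatty-acid-free BSA and then stimulated with compound or isoprenaline at 1×10^−5 M final. After 1 h 40 min cells were washed and re-dosed in glucose-free medium. Twenty minutes later, uptake of 50 nM ^3H-2-deoxyglucose over 10 min was measured by scintillation counting of NaOH lysates.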

L6-myotubes [3] = assay: Measurement of intracellular cAMP levels in differentiated L6-myotubes (Biological Example 3); type: cell-based; details: for intracellular cAMP levels: L6-myotubes, 15 min stimulation, compared with isoprenaline, FIGS. 2a-2d; for Emax at 10 µM: 0.25 h
Method in brief: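 Serum-starved differentiated L6 myotubes stimulated 15 min with test compound at 1×10^−5 M final (isoprenaline as reference) in HBSS with 1% BSA, 5 mM HEPES, 1 mM IBMX, pH 7.4. Cells EtOH-extracted, lysed, and intracellular cAMP measured by AlphaScreen.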

β2-adrenergic receptor [4] = biological target: T2, β2-adrenergic receptor (Homo sapiens, UniProt P07550); assay: β-arrestin 2 recruitment, Large BiT/Small BiT luciferase complementation in HEK293 cells (Biological Example 4); type: cell-based; details: luminescence after 31 min, compared with isoprenaline, FIGS. 3a-3c
T2 construct: expressed in transfected cells; host or cells: HEK293
Experimental: HEK293 cells are transfected with both the β2-adrenergic receptor attached with a Large BiT SNAP-tag protein, and with p-arrestin 2 attached to a Small BiT SNAP-tag protein. When cells are stimulated and the receptor recruits β-arrestin 2, the Small- and Large-BiT proteins merge, forming a functional luciferase enzyme, that in presence of furimazine generates light. After 31 min, the light is measured with a luminescence plate reader.

C57Bl/6 mice = assay: Body weight and lean mass in mice treated with dexamethasone (Biological Example 5); type: in vivo; details: male C57Bl/6 mice, daily s.c. for 3 weeks, dexamethasone sodium phosphate 10 mg/kg, Compound A 47.1 μmol/kg
Experimental: 40 eight-week-old male C57Bl/6 mice kept on standard chow diet were grouped-caged (2-3 mice per cage) at 21° C. The mice had similar body weight and body composition and were divided into four groups (n=10) and were treated daily with subcutaneous injections for 3 weeks with either dexamethasone sodium phosphate (10 mg/kg) or Compound A (47.1 μmol/kg (corresponding to dose 10 mg/kg of the free base)), or a combination of dexamethasone and Compound A. Control mice received saline. Body weight and lean mass were measured after 6, 12 and 20 days of treatment.

[5] = glucose uptake, compound at 10 μM relative to isoproterenol at 10 μM
[6] = intracellular cAMP, compound at 10 μM relative to isoproterenol at 10 μM
[7] = glucose uptake in differentiated L6-myotubes, compound at 10 μM, activity relative to isoproterenol at 10 μM
[8] = intracellular cAMP in differentiated L6-myotubes, compound at 10 μM, activity relative to isoproterenol at 10 μM

T2 sequence (P07550 whole entry, species assumed): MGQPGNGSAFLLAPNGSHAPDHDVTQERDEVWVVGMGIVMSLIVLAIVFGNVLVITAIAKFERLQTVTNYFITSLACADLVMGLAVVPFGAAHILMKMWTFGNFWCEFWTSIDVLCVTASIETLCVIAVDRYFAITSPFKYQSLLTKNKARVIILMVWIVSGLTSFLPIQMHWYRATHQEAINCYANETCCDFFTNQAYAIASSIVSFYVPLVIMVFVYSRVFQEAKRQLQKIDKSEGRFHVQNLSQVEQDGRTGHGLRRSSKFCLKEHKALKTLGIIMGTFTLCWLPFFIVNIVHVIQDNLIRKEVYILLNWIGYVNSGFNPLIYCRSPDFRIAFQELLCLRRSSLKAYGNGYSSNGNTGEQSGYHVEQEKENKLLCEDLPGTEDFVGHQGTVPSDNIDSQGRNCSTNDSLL
T1 sequence (P10608 whole entry): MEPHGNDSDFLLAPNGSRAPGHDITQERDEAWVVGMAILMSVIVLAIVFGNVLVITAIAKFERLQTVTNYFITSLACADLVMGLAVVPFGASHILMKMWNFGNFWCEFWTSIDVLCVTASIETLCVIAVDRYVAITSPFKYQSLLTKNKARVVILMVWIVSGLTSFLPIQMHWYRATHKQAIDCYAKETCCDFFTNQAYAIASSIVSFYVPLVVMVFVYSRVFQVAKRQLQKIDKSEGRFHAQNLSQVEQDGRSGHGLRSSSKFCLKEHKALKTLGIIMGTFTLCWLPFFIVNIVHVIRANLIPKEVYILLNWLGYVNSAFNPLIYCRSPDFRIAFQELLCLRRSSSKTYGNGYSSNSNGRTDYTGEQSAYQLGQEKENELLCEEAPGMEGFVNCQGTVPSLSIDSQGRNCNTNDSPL

SMILES | Emax at 10 µM (L6-myotubes [2]; [7]) [%] | Emax at 10 µM (L6-myotubes [3]; [8]) [%] | further results
CC(C)(C)NC[C@H](O)c1cccc(F)c1.Cl [Compound A, (R)-2-(tert-Butylamino)-1-(3-fluorophenyl)ethan-1-ol hydrochloride] | – | – | glucose uptake promoted by the compound in the presence of ICI-118551 (β2-adrenergic receptor [1]): inhibited in a dose-dependent manner; glucose uptake (L6-myotubes [2]): full glucose uptake response; intracellular cAMP levels (L6-myotubes [3]): low intracellular cAMP levels; β-arrestin 2 recruitment (β2-adrenergic receptor [4]): minimal p-arrestin 2 recruitment; body weight (C57Bl/6 mice; FIG. 4): effect is reversed; lean mass (C57Bl/6 mice; FIG. 5): effect is reversed
CC(C)(C)NC[C@H](O)c1cncc(F)c1.O=C(O)C(O)C(O)C(=O)O [Compound B, (R)-2-(tert-Butylamino)-1-(5-fluoropyridin-3-yl)ethan-1-ol hemi-tartrate] | – | – | glucose uptake promoted by the compound in the presence of ICI-118551 (β2-adrenergic receptor [1]): inhibited in a dose-dependent manner; glucose uptake (L6-myotubes [2]): full glucose uptake response; intracellular cAMP levels (L6-myotubes [3]): low intracellular cAMP levels; β-arrestin 2 recruitment (β2-adrenergic receptor [4]): minimal p-arrestin 2 recruitment
C[C@H]1CC[C@@H]([C@H](O)c2cccc(O)c2)N1 (racemic) [Compound 40, Racemic mixture of m-{(R)-[(2S,5S)-5-methyl-2-pyrrolidinyl] hydroxymethyl} phenol and m-{(S)-[(2R,5R)-5-methyl-2-pyrrolidinyl] hydroxymethyl} phenol] | – | – | Emax at 10 µM (L6-myotubes [2]; [5]): 50 to 75%; Emax at 10 µM (L6-myotubes [3]; [6]): < 25%
CO[C@H]1CC[C@@H](CNC[C@H](O)c2cccc(F)c2)CC1 [Compound 245, (R)-1-(m-fluorophenyl)-2-({[(1s,4S)-4-methoxycyclohexyl]methyl}amino)-1-ethanol] | 50 to 75 | < 25 | –
CC(=O)N[C@H]1CC[C@@H](CNC[C@H](O)c2cccc(F)c2)CC1 [Compound 307] | 50 to 75 | < 25 | –
CO[C@H]1CC[C@H](CCNC[C@H](O)c2cccc(F)c2)CC1 [Compound 224, (R)-1-(m-fluorophenyl)-2-{2-[(1r,4R)-4-methoxycyclohexyl]ethylamino}-1-ethanol] | 25 to 50 | < 25 | –
CC1(C)CCC([C@H](O)c2ccccc2F)N1 (stereo in doubt) [Compound 175, (R)-[(R)-5,5-dimethyl-2-pyrrolidinyl](o-fluorophenyl)methanol] | – | – | Emax at 10 µM (L6-myotubes [2]; [5]): > 75%; Emax at 10 µM (L6-myotubes [3]; [6]): 25 to 50%
CC(C)(C[C@H]1CC[C@H](NC(=O)C(F)(F)F)CC1)NC[C@H](O)c1cccc(F)c1 [Compound 433] | – | – | Biological example 2 (GU) (L6-myotubes [2]; [7]): +++ (If a compound at 10 μM shows activity of more than 75% of that of isoproterenol at 10 μM, the activity is denoted with +++); Biological example 3 (CAMP) (L6-myotubes [3]; [8]): + (if it is between 50 and 25% it is denoted with +)
COc1ccc(C[C@@H]2CC[C@H]([C@@H](O)c3cccc(F)c3)N2)cc1 [Compound 372, (S)-{(2R,5S)-5-[(p-methoxyphenyl)methyl]-2-pyrrolidinyl}(m-fluorophenyl)methanol] | > 75 | < 25 | –
CC(C)(C)NC[C@H](O)c1cccc(C(F)(F)F)n1 [Compound 397, (S)-2-(tert-butylamino)-1-[6-(trifluoromethyl)-2-pyridyl]-1-ethanol] | > 75 | < 25 | –
CN([C@H]1CC[C@@H](CC(C)(C)NC[C@H](O)c2cccc(F)c2)CC1)S(C)(=O)=O [Compound 498, (R)-2-{1,1-dimethyl-2-[(1s,4S)-4-(N-mesyl-N-methylamino)cyclohexyl]ethylamino}-1-(m-fluorophenyl)-1-ethanol] | 25 to 50 | < 25 | –
CC1(C)CC[C@H]([C@@H](O)c2cccc(F)c2)N1 [Compound 109, (S)-[(R)-5,5-dimethyl-2-pyrrolidinyl](m-fluorophenyl)methanol] | – | – | Emax at 10 µM (L6-myotubes [2]; [5]): 25 to 50%; Emax at 10 µM (L6-myotubes [3]; [6]): < 25%
CN(C)S(=O)(=O)[C@H]1CC[C@H](CC(C)(C)NC[C@H](O)c2cncc(F)c2)CC1 [Compound 465] | 50 to 75 | 25 to 50 | –
COC(=O)[C@H]1CC[C@@H](CC(C)(C)NC[C@H](O)c2cccc(F)c2)CC1 [Compound 327, methyl (1S,4s)-4-{2-[(R)-2-(m-fluorophenyl)-2-hydroxyethylamino]-2-methylpropyl} cyclohexanecarboxylate] | > 75 | < 25 | –
CCCCNCC(O)c1cccc(Cl)c1 (centres unmarked) [Compound 2, 2-(butylamino)-1-(m-chlorophenyl)-1-ethanol] | – | – | Emax at 10 µM (L6-myotubes [2]; [5]): 25 to 50%; Emax at 10 µM (L6-myotubes [3]; [6]): < 25%
CCC[C@@H]1CC[C@@H]([C@@H](O)c2cccc(F)c2)N1 [Compound 133, (S)-[(2,5R)-5-propyl-2-pyrrolidinyl](m-fluorophenyl)methanol] | – | – | Emax at 10 µM (L6-myotubes [2]; [5]): 50 to 75%; Emax at 10 µM (L6-myotubes [3]; [6]): < 25%
CS(=O)(=O)N(Cc1ccccc1)[C@H]1CC[C@H](C[C@@H]2CC[C@H]([C@H](O)c3cccc(F)c3)N2)CC1 [Compound 502] | < 25 | < 25 | –
O[C@@H](c1cccc(F)c1)C12CCC(COCc3ccc(F)cc3)(CC1)N2 [Compound 438, (S)-(m-fluorophenyl)(4-{[(p-fluorophenyl)methoxy]methyl}-7-azabicyclo[[2.2.1]]hept-1-yl)methanol] | < 25 | < 25 | –
CC1(C)C[C@@H]([C@H](O)c2cccc(Cl)c2)N1 [Compound 232] | 25 to 50 | < 25 | –
O[C@H](c1cccc(F)c1)C12CCC(COCc3ccc(OC(F)(F)F)cc3)(CC1)N2 [Compound 488] | < 25 | < 25 | –
CC(=O)N[C@H]1CC[C@H](C[C@@H]2CC[C@H]([C@@H](O)c3cccc(F)c3)N2)CC1 [Compound 486] | 50 to 75 | < 25 | –
CC1(C)CCC[C@H]([C@H](O)c2cccc(F)c2)N1 [Compound 102] | – | – | Emax at 10 µM (L6-myotubes [2]; [5]): 50 to 75%; Emax at 10 µM (L6-myotubes [3]; [6]): < 25%
CS(=O)(=O)N(Cc1ccccc1)c1ccc(CC23CCC([C@H](O)c4cccc(F)c4)(CC2)N3)cc1 [Compound 473] | 25 to 50 | < 25 | –
CC(C)CS(=O)(=O)N[C@H]1CC[C@H](CC(C)(C)NC[C@H](O)c2cncc(F)c2)CC1 [Compound 526] | 50 to 75 | < 25 | –
CC1(C)C[C@H]([C@H](O)c2ccccc2F)N1 [Compound 204, (R)-[(R)-4,4-dimethyl-2-azetidinyl](o-fluorophenyl)methanol] | > 75 | 25 to 50 | –
